Source: patent publication US7300939B2, “Substituted 1-propiolylpiperazine compounds, their preparation and use” (Gruenenthal GmbH, priority 2005, dated 2007)
Structures can show the parent of a compound that is named as a salt.

Target: T1, mGluR5 receptor (Sus scrofa, UniProt I3LUI7)
T1 construct: from tissue; host or cells: pig brain halves without medulla, cerebellum and pons
Assay: [3H]-MPEP binding in the mGluR5 receptor binding assay (pig brain homogenate)
Conditions: for mGluR5-receptor (% inhibition 10 μM) in pigs: pig brain homogenate, 5 nM [3H]-MPEP; for IC50: Table II, unit inferred
Description: I. Method the Determination of the Inhibition of the [^3H]-MPEP Binding in the mGluR5 Receptor Binding Assay
Pig brain homogenate is prepared by homogenization (Polytron PT 3000, Kinematica AG, 10,000 revolutions per minute 90 seconds) of pig brain halves without medulla, cerebellum and pons in a buffer solution having a pH of 8.0 (30 mM of hepes, Sigma, order no. H3375+1 tablet of Complete to 100 ml, Roche Diagnostics, order no. 1836145) in a ratio of 1:20 (brain weight/volume) and differential centrifugation at 900×g and 40,000×g. In each case 450 μg of protein from brain homogenate are incubated with 5 nM [^3H]-MPEP (Tocris, order no. R1212) (MPEP=2-methyl-6-(3-methoxyphenyl)ethynylpyridine) and the compounds to be investigated (10 μM in the test) in a buffer solution (as above) in 250 μl incubation batches in 96-well microtiter plates at room temperature 60 min.
Thereafter, the batches are filtered with the aid of a Brandel cell harvester (Brandel, Robotic 9600 model) onto Unifilter plates with glass fiber filter mats (Perkin Elmer, order no. 6005177) and then rinsed with buffer solution (as above) 3 times with 250 μl per sample each time. The filter plates are then dried 60 min at 55° C. 30 μl Ultima Gold™ scintillator (Packard BioScience, order no. 6013159) are subsequently added per well and, after 3 hours, the samples are measured on a β-counter (Mikrobeta, Perkin Elmer). The non-specific binding is determined by addition of 10 μM of MPEP (Tocris, order no. 1212).

T1 sequence (I3LUI7 19-1212): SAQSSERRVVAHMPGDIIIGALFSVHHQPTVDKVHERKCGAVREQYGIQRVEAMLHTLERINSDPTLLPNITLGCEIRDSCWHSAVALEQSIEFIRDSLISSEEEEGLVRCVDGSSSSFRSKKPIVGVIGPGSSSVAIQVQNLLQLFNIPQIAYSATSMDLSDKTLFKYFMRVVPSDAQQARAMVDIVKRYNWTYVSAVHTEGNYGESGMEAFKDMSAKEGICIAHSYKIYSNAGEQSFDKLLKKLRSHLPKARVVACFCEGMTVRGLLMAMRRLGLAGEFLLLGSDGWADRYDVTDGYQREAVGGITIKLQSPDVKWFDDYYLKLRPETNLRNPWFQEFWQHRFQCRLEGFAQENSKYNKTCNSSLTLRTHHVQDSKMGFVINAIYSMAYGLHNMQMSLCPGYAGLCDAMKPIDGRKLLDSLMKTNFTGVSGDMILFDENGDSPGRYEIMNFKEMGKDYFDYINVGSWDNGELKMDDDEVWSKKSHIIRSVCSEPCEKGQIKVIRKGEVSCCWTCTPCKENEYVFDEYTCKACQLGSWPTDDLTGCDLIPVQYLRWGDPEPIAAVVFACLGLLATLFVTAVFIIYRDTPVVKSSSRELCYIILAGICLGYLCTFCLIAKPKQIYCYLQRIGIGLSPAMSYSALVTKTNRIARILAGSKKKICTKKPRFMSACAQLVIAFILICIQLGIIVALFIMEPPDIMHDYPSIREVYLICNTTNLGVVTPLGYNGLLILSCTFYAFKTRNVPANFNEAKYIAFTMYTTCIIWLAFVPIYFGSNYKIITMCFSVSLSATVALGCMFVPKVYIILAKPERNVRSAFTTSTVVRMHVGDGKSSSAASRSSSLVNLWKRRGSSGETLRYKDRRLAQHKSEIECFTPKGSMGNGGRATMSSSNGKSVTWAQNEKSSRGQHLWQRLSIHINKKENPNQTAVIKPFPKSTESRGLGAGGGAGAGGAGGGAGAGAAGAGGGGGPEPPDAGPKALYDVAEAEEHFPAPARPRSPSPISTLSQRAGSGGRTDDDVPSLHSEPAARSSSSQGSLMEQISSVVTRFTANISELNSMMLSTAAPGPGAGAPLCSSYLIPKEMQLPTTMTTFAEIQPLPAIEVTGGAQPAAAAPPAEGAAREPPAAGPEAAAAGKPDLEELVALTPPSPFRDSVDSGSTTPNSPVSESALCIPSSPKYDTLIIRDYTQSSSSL

Row | SMILES | mGluR5-receptor (% inhibition 10 μM) in pigs [%] | IC50 [nM]
1 | CN(C)c1cccc(C#CC(=O)N2CCN(c3nccs3)CC2)c1 [Example AAA00113, 4-(Thiazol-2-yl)-1-(3-(3-dimethylaminophenyl)propiolyl)piperazine] | 27 | –
2 | O=C(C#Cc1ccc(F)cc1)N1CCN(c2nccs2)CC1 [Example AAA61, 4-(Thiazol-2-yl)-1-(3-(4-fluorophenyl)propiolyl)piperazine] | 76 | –
3 | C[S+]([O-])c1cccc(C#CC(=O)N2CCN(c3nccs3)CC2)c1 (stereo not shown) [Example AAA00115, 4-(Thiazol-2-yl)-1-(3-(3-methylsulfinylphenyl)propiolyl)piperazine] | 17 | –
4 | O=C(C#Cc1cccc(F)c1)N1CCN(c2nc(-c3ccccc3)ns2)CC1 [CCC4, 4-(3-Phenyl-1,2,4-thiadiazol-5-yl)-1-(3-(3-fluorophenyl)propiolyl)piperazine] | 59 | –
5 | O=C(C#Cc1cccc(-c2ccccc2)c1)N1CCN(c2nccs2)CC1 [Example AAA37, 4-(Thiazol-2-yl)-1-(3-biphenyl-3-ylpropiolyl)piperazine] | 45 | –
6 | CCOC(=O)c1cccc(C#CC(=O)N2CCN(c3nccs3)CC2)c1 [Example AAA3, 4-(Thiazol-2-yl)-1-(3-(3-carboxyphenyl)propiolyl)piperazine ethyl ester] | 40 | –
7 | N#Cc1ccccc1C#CC(=O)N1CCN(c2nccs2)CC1 [Example AAA15, 4-(Thiazol-2-yl)-1-(3-(2-cyanophenyl)propiolyl)piperazine] | 54 | –
8 | Cc1nsc(N2CCN(C(=O)C#Cc3ccccc3)CC2)n1 [Example AAA00104, 4-(3-Methyl-1,2,4-thiadiazol-5-yl)-1-(3-phenylpropiolyl)piperazine] | 91 | –
9 | Nc1cccc(C#CC(=O)N2CCN(c3nccs3)CC2)c1 [Example AAA7, 4-(Thiazol-2-yl)-1-(3-(3-aminophenyl)propiolyl)piperazine] | 91 | –
10 | CS(=O)(=O)c1nsc(N2CCN(C(=O)C#Cc3ccccc3)CC2)n1 [Example AAA00101, 4-(3-Methansulfonyl-1,2,4-thiadiazol-5-yl)-1-(3-phenylpropiolyl)piperazine] | 30 | –
11 | CCOC(=O)c1csc(N2CCN(C(=O)C#Cc3ccccc3)CC2)n1 [Example AAA77, 4-(4-Carboxy-thiazol-2-yl)-1-(3-phenylpropiolyl)piperazine ethyl ester] | 89 | –
12 | C#Cc1cccc(C#CC(=O)N2CCN(c3nccs3)CC2)c1 [Example AAA00117, 4-(Thiazol-2-yl)-1-(3-(3-ethynylphenyl)propiolyl)piperazine] | – | 26
13 | O=C(C#Cc1ccccc1O)N1CCN(c2nccs2)CC1 [Example AAA4, 4-(Thiazol-2-yl)-1-(3-(2-hydroxyphenyl)propiolyl)piperazine] | – | 450
14 | O=C(C#Cc1ccccc1)N1CCN(c2ncns2)CC1 [Example AAA00103, 4-(1,2,4-Thiadiazol-5-yl)-1-(3-phenylpropiolyl)piperazine] | 83 | –
15 | CNc1cccc(C#CC(=O)N2CCN(c3nccs3)CC2)c1 [Example AAA00112, 4-(Thiazol-2-yl)-1-(3-(3-methylaminophenyl)propiolyl)piperazine] | – | 560
16 | O=C(C#Cc1ccccc1F)N1CCN(c2nccs2)CC1 [Example AAA21, 4-(Thiazol-2-yl)-1-(3-(2-fluorophenyl)propiolyl)piperazine] | – | 830
17 | Nc1ccccc1C#CC(=O)N1CCN(c2nccs2)CC1 [Example AAA6, 4-(Thiazol-2-yl)-1-(3-(2-aminophenyl)propiolyl)piperazine] | 54 | –
18 | CCCCCC#CC(=O)N1CCN(c2nccs2)CC1 [Example AAA60, 4-(Thiazol-2-yl)-1-(3-pentylpropiolyl)piperazine] | – | 1850
19 | O=C(C#Cc1cccnc1)N1CCN(c2nccs2)CC1 [Example AAA33, 4-(Thiazol-2-yl)-1-(3-pyrid-3-ylpropiolyl)piperazine] | 50 | –
20 | Cc1ccc(C#CC(=O)N2CCN(c3nccs3)CC2)cc1.Cl [Example AAA55, 4-(Thiazol-2-yl)-1-(3-(4-tolyl)propiolyl)piperazine hydrochloride] | 41 | –
21 | Cc1csc(C#CC(=O)N2CCN(c3nccs3)CC2)c1 [AAA00118, 4-(Thiazol-2-yl)-1-(3-(4-methylthiophen-2-yl)propiolyl)piperazine] | – | 93
22 | CCC1CN(c2nccs2)CCN1C(=O)C#Cc1ccccc1 (stereo not shown) [Example AAA71, 2-Ethyl-4-(thiazol-2-yl)-1-(3-phenylpropiolyl)piperazine] | – | 38
23 | O=C(C#Cc1cccc(O)c1)N1CCN(c2nccs2)CC1 [Example AAA43, 4-(Thiazol-2-yl)-1-(3-(3-hydroxyphenyl)propiolyl)piperazine] | 83 | –

The next lines start with the values.

Row | mGluR5-receptor (% inhibition 10 μM) in pigs [%] | IC50 [nM] | SMILES
24 | – | 260 | CCc1cccc(C#CC(=O)N2CCN(c3nccs3)CC2)c1 [Example AAA00120, 4-(Thiazol-2-yl)-1-(3-(3-ethylphenyl)propiolyl)piperazine]
25 | 43 | – | Cc1ccc(C#CC(=O)N2CCN(c3ncc(C)s3)CC2)cc1 [CCC33, 4-(5-Methylthiazol-2-yl)-1-(3-(tol-4-yl)propiolyl)piperazine]
26 | 30 | – | CC(=O)Nc1cccc(C#CC(=O)N2CCN(c3nccs3)CC2)c1 [Example AAA44, 4-(Thiazol-2-yl)-1-(3-(3-acetaminophenyl)propiolyl)piperazine]
27 | 72 | – | CN(C)C(=O)c1cnc(N2CCN(C(=O)C#Cc3ccccc3)CC2)s1 [Example AAA81, 4-(5-Dimethylaminocarbonylthiazol-2-yl)-1-(3-phenylpropiolyl)piperazine]
28 | 25 | – | Cc1ccccc1C#CC(=O)N1CCN(c2nc(-c3ccc(F)cc3)ns2)CC1 [CCC8, 4-(3-(4-Fluorophenyl)-1,2,4-thiadiazol-5-yl)-1-(3-(tol-2-yl)propiolyl)piperazine]
29 | – | 19 | CC1CN(c2nccs2)CCN1C(=O)C#Cc1cccc(C#N)c1 (stereo not shown) [AAA00123, 2-Methyl-4-(thiazol-2-yl)-1-(3-(3-cyanophenyl)propiolyl)piperazine]
30 | – | 240 | O=C(C#Cc1cccc(C(F)(F)F)c1)N1CCN(c2nccs2)CC1 [Example AAA58, 4-(Thiazol-2-yl)-1-(3-(3-trifluoromethylphenyl)propiolyl)piperazine hydrochloride]
31 | 74 | – | O=C(C#Cc1ccco1)N1CCN(c2nccs2)CC1 [Example AAA73, 4-(Thiazol-2-yl)-1-(3-(2-furyl)propiolyl)piperazine]
32 | 87 | – | O=C(C#Cc1ccccc1)N1CCN(c2nc(-c3ccccc3)cs2)CC1 [Example AAA99, 4-(4-Phenylthiazol-2-yl)-1-(3-phenylpropiolyl)piperazine]
33 | – | 360 | O=C(C#Cc1ccccc1)N1CCN(c2ncc(Br)s2)CC1 [Example AAA96, 4-(5-Bromothiazol-2-yl)-1-(3-phenylpropiolyl)piperazine]
34 | 35 | – | O=C(C#Cc1ccc(O)cc1)N1CCN(c2nccs2)CC1 [Example AAA5, 4-(Thiazol-2-yl)-1-(3-(4-hydroxyphenyl)propiolyl)piperazine]
